In brackets after ≈: the same amount, converted by molar mass.
Key:
[1] = hydroxy radical scavenging, orthophenanthroline Fe2+ oxidation method; assay type: biochemical
Method: The first extract of lingonberry from Example 7, containing 5.2 wt % of anthocyanin, 22.3 wt % of proanthocyanin, and 0.5 wt % of resveratrol, was dissolved in double-distilled water and diluted into solutions in serial concentrations of 0.5, 0.25, 0.125, 0.0625, 0.03125, 0.015625, and 0.0078125 mg/ml. Ascorbic acid was likewise diluted to serial concentrations of 2, 1, 0.5, 0.25, 0.125, and 0.0625 mg/ml. The anti-oxidation effect of lingonberry extracts was confirmed by determining the hydroxyl radical (.OH) and the scavenging effect of the test drug on the hydroxy radical using the orthophenanthroline Fe^2+ oxidation method.
The total reaction volume was 4.7 ml, and thus the final concentrations of ascorbic acid solution were 0.851, 0.426, 0.213, and 0.106 mg/ml, while the final concentrations of lingonberry extract were 0.106, 0.053, 0.027, 0.013 mg/ml. Measurements were obtained for five samples in each group, and the scavenging rates of .OH were calculated and averaged. In order to verify the reliability of this method, ascorbic acid, a known .OH scavenging agent was used as a positive control when evaluating the scavenging effect of the lingonberry extract on hydroxy radicals during the experiment.
In the reaction system of these experiments, the aqueous solution of lingonberry extract could bind with hydroxy radicals generated in the Fenton reaction, thus reducing oxidation of Fe^2+ by hydroxy radicals. Its effect on scavenging hydroxy radicals was evaluated by determining the absorbance value of the reaction system.

[2] = tested on: yeast; settings: by activating Sir2 enzymatic expression; cited from earlier work

Compound	•OH scavenging rate (d) ([1]; final concentration 0.106 mg/ml)	•OH scavenging rate (d) ([1]; final concentration 0.213 mg/ml)	•OH scavenging rate (d) ([1]; final concentration 0.426 mg/ml)	•OH scavenging rate (d) ([1]; final concentration 0.851 mg/ml)	IC50, hydroxy radical scavenging ([1]; orthophenanthroline Fe2+ oxidation method) [µg/mL]	increase of life span [2]
O=C1O[C@H]([C@@H](O)CO)C(O)=C1O [ascorbic acid]	24.44 ± 2.32	25.55 ± 2.10	40.49 ± 1.33	91.92 ± 0.77	307.8 (≈ 1750 µM)	
Oc1ccc(C=Cc2cc(O)cc(O)c2)cc1 [resveratrol]						about 70%

— patent US7939111B2, “Lingonberry extract, methods of preparing, and uses thereof” (Beijing Gingko-Group Biological Technology Co., Ltd., priority 2007, dated 2011)
